How the values were obtained:
advanced NSCLC = conditions: combination with docetaxel; predefined patients with adenocarcinoma tumor histology; Reck et al. 2014; cited from earlier work
[1] = test system: xenograft models of human solid tumors; conditions: Hilberg et al. 2008; cited from earlier work
[2] = preclinical studies, oral bioavailability; format: in vivo
[3] = test system: vascular endothelial growth factor receptors (VEGFRs); test: preclinical studies, inhibition of VEGFRs; format: biochemical
[4] = test system: platelet-derived growth factor receptors (PDGFRs); test: preclinical studies, inhibition of PDGFRs; format: biochemical
[5] = test system: EGFR and ALK wild-type advanced NSCLC with CCDC6-RET fusion gene; test: Phase I case study, docetaxel plus nintedanib in a patient with CCDC6-RET fusion NSCLC; format: in vivo, human; conditions: one patient
Text: The present study is a case study of long-term efficacy of docetaxel plus nintedanib (BIBF 1120; 3-Z-[1-(4-(N-((4-methyl-piperazin-1-yl)-methylcarbonyl)-N-methyl-amino)-anilino)-1-phenyl-methylene]-6-methoxycarbonyl-2-indolinone) over 33 months in a never smoking person with EGFR and ALK wild-type non-small cell lung cancer NSCLC.
The present case was a never smoking person with EGFR and ALK wild-type advanced NSCLC. After failure of first-line platinum-based chemotherapy, the patient was enrolled in a phase I dose-escalation study of nintedanib combined with docetaxel for Japanese patients with advanced NSCLC on June, 2010, with oral administration of nintedanib 150 mg twice daily plus docetaxel 75 mg/m^2 every 3 weeks (Okamoto I, Kaneda H, Satoh T et al. Phase I safety, pharmacokinetic, and biomarker study of BIBF 1120, an oral triple tyrosine kinase inhibitor in patients with advanced solid tumors. Mol Cancer Ther 2010; 9: 2825-2833.). […] A total of 48 treatment cycles (26 cycles of therapy with nintedanib alone) had been administered over 33 months until disease progression on March, 2013 (FIG. 1). To identify mutations which are highly susceptible to therapy with nintedanib, next-generation sequencing panels were applied that cover both mutational hotspots in 22 genes related to lung and colon tumorigenesis using DNA (FIG. 4) as well as 72 major variants of ALK, RET, ROS1, and NTRK1 fusion transcripts using RNA extracted from non-small lung tissues obtained by transbronchial biopsy (FIG. 5). Multiplex genetic testing has identified CCDC6-RET fusion gene in tissue specimens for lung cancer diagnosis (FIG. 2), and no other actionable mutations were identified.

VEGFR2 = VEGFR2 (Homo sapiens, UniProt P35968); conditions: in vitro; Hilberg et al. 2008; cited from earlier work
Chain of VEGFR2 (P35968 20-1356, species assumed): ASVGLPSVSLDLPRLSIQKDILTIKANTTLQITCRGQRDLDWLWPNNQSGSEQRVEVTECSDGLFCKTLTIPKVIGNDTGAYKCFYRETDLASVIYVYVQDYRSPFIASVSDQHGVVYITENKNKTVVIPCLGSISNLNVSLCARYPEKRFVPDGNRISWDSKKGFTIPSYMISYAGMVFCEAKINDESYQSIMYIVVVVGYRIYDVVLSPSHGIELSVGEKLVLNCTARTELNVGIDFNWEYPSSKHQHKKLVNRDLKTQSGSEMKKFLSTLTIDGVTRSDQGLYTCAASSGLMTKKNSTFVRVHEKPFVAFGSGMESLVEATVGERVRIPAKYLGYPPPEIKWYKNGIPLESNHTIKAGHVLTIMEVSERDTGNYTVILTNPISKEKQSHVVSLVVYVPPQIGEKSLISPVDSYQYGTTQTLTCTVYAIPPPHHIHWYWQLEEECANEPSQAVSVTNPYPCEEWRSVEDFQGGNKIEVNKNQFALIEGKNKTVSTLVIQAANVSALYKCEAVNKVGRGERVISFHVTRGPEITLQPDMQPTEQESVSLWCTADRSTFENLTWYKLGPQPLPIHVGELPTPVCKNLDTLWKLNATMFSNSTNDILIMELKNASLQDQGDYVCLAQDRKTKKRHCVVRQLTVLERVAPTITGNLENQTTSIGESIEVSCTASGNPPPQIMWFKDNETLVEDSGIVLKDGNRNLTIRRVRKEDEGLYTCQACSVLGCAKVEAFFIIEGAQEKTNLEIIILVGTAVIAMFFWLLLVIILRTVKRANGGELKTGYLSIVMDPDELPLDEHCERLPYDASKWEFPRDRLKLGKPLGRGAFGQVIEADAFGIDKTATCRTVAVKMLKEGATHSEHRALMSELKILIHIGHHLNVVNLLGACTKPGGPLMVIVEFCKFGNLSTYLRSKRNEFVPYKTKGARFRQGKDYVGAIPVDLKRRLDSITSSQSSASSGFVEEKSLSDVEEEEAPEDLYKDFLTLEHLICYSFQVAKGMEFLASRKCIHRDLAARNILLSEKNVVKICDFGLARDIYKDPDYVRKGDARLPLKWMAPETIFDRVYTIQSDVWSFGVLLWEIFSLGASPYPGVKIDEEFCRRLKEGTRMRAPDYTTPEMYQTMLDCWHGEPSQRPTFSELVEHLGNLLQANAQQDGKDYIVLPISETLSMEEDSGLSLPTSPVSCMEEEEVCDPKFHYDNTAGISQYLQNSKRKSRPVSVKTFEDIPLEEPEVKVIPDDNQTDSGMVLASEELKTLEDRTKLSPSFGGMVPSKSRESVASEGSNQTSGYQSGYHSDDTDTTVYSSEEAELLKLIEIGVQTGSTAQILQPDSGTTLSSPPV

[6] = test system: fibroblast growth factor receptors (FGFRs); test: preclinical studies, inhibition of FGFRs; format: biochemical
[7] = test system: endothelial- and smooth muscle cells and pericytes; test: signalling in endothelial- and smooth muscle cells and pericytes; format: cell-based
tumor vessel density = test: tumor vessel density; conditions: in vivo

| SMILES | overall survival compared with docetaxel alone (advanced NSCLC) | tumor growth [1] | oral bioavailability [2] | inhibition of VEGFRs [3] | inhibition of PDGFRs [4] | treatment time until disease progression ([5]; 48 treatment cycles, 26 of them nintedanib alone after docetaxel was stopped) [months] | response ([5]; nintedanib 150 mg twice daily plus docetaxel 75 mg/m^2 every 3 weeks) | blockade of VEGFR2 (VEGFR2) | inhibition of FGFRs [6] | signalling in endothelial- and smooth muscle cells and pericytes [7] | tumor vessel density (tumor vessel density) | adverse events leading to discontinuation ([5]; docetaxel discontinued after 22 cycles) |
| --- | --- | --- | --- | --- | --- | --- | --- | --- | --- | --- | --- | --- |
| COC(=O)c1ccc2c(c1)NC(=O)/C2=C(\Nc1ccc(N(C)C(=O)CN2CCN(C)CC2)cc1)c1ccccc1 [nintedanib, 3-Z-[1-(4-(N-((4-methyl-piperazin-1-yl)-methylcarbonyl)-N-methyl-amino)-anilino)-1-phenyl-methylene]-6-methoxycarbonyl-2-indolinone] | significantly and clinically meaningful improved overall survival | delay or arrest of tumor growth | orally bioavailable | highly potent | highly potent | 33 | radiographic response | sustained blockade | highly potent | inhibits signalling | reduces tumor vessel density |  |
| CC(=O)O[C@@]12CO[C@@H]1C[C@H](O)[C@@]1(C)C(=O)[C@H](O)C3=C(C)[C@@H](OC(=O)[C@H](O)[C@@H](NC(=O)OC(C)(C)C)c4ccccc4)C[C@@](O)([C@@H](OC(=O)c4ccccc4)[C@H]21)C3(C)C [docetaxel, reference compound] |  |  |  |  |  |  |  |  |  |  |  | lower extremity edema and fatigue |

From patent US20190002988A1, “METHOD OF USING A RET FUSION GENE AS A BIOMARKER TO SELECT NON SMALL CELL LUNG CANCER (NSCLC) AND THYROID CANCER PATIENTS FOR A CANCER TREATMENT” (Boehringer Ingelheim International GmbH, priority 2015, published 2019)
